Source: paper PMC4014619, “Slc26a7 Chloride Channel Activity and Localization in Mouse Reissner’s Membrane Epithelium” (PLoS ONE, 2014)

Target: T1, Slc26a7 (Mus musculus, UniProt Q8R2Z3)
T1 construct: native full-length channel in Reissner's membrane epithelial cells (basolateral membrane); Slc26a7 knockout mice as control
T1 sequence (Q8R2Z3 1-656): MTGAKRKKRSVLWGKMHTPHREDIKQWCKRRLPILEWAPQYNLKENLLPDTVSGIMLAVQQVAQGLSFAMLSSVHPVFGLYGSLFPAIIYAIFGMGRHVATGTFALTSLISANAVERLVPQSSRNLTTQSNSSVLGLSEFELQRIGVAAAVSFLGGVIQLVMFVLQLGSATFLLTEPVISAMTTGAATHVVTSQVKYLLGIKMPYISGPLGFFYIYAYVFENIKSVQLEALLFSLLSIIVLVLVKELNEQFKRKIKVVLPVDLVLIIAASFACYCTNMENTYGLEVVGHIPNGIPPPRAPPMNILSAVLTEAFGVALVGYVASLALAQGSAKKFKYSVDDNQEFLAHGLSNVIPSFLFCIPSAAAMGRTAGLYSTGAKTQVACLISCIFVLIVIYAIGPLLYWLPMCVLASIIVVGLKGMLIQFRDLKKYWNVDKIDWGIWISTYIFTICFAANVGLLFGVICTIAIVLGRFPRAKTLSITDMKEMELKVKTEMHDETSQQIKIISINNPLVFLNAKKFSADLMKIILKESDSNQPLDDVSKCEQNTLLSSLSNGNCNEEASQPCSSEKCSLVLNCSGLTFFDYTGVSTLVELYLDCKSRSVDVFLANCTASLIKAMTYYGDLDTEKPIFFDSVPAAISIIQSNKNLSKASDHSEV
Assay: whole-cell patch clamp, wild-type versus Slc26a7 knockout native epithelial cells
Format: cell-based
Conditions: NMDG-Cl pipette, NO3-rich versus Cl-rich bath, +80 mV, pH 7.3, 37 °C; native cells with other anion channels present

O=[N+]([O-])O [NO3 ^−]
whole-cell patch clamp, wild-type versus Slc26a7 knockout native epithelial cell: elevated NO3 ^− current in wild-type cells being mediated by the Slc26a7 Cl^− channel
